# Key:
# Format in all cases: cell-based
# [1] = molecular target: T1, PRMT5:MEP50 protein-protein interaction (Homo sapiens, UniProt O14744); test: BiFC drug screen of PRMT5:MEP50 interaction in COS-1 cells; set-up: expressed in transfected cells; host or cells: COS-1; conditions: for rank in BiFC screen (inhibition of PRMT5:MEP50): 18 hours
# Protocol: (§1) BiFC Drug Screens: COS-1 cells were grown in DMEM and seeded to 50,000 cells/well of a 12-well plate and allowed to attach for 24 hours. Cells were then transfected with three plasmids pMyc-VN155-PRMT5, pHA-VC-MEP50, and pFLAG-NLS-CFP to visualize the interaction between PRMT5:MEP50. For BiFC screens, the COS-1 cells were treated with compound or DMSO to final concentration (10 μM for compound 1-12 screen and 0.25, 0.50, 0.75, 1.0, and 5.0 μM or subsequent compound 8 screen) six hours after transfection and returned to the incubator. Following 24 hours after transfection, cells were imaged on a Nikon TE-2000U microscope and images for CFP, YFP, and phase contrast were acquired using MetaMorph software (Nikon) with 20× objective. Images were analyzed with ImageJ^70. Regions of Interest (ROI) were selected around each cell, and mean intensity was measured for each selection. A YFP:CFP ratio was calculated for DMSO as well as control treatment cells. The YFP:CFP ratio was then normalized to that of DMSO to generate the BiFC Efficiency score. The lower score indicated less PRMT5:MEP50 PPI detected in a given cell or treatment group. Inhibition (% Inhibition) is calculated as a percent of 100%−the BiFC Efficiency. Referring to FIGS. 6A-6C, for the BiFC screen of compounds 13-22 (including 8a and 8b), COS-1 cells were transfected for 24 hours, treated with 0.5 μM of compounds for 18 hours, and then imaged as described above. Referring to FIG. 6C, for the BiFC screen of compounds 23-26 (including 8a and 8b), COS-1 cells were transfected for 24 hours, treated with 0.25 M of compounds for 18 hours, and then imaged as described above. BiFC drug screens were performed in single biological replicate as a high throughput screen to produce ranked order of compounds, although multiple biological replicate data was used whenever available.
# [2] = tested on: H4R3me2s; test: Global histone H4R3me2s western blot in LNCaP cells; conditions: 72 hours
# Protocol: For global histone H4R3 and H4R3me2s western blots, cell lysate was prepared in RIPA buffer (10 mM Tris-HCl pH 8.0, 5 mM EDTA, 1% Triton X-100, 0.1% sodium deoxycholate, 0.1% sodium dodecyl sulfate, 150 mM sodium chloride, and 5 μg/mL each chymostatin, leupeptin, pepstatin A, and antipan in DMSO, with 1 mM PMSF and total soluble protein was quantified using Bradford assay. 100 μL lysate was combined with 100 μL 2×SDS buffer, and 20 μg total lysate was loaded into the wells of a 15% acrylamide/bisacrylamide gel. The gel was run for 60 min at 125 V and transferred onto nitrocellulose membrane for 45 min at 100 V. Anti-H4R3 rabbit pAb (Abcam, ab10158) or anti-H4R3me2s rabbit pAb (Abcam, ab5823) was diluted 1:1000 in PBST and incubated overnight at 4° C. Secondary IRDyeR 800CW Donkey anti-Rabbit IgG Secondary Antibody (Li-Cor, 926-32213) was diluted 1:20,000 in PBST and incubated with the membrane, which was then imaged via LiCor Odyssey CLx imager and analyzed with ImageStudioLite software (Li-Cor). Integrated intensity of H4R3me2s band was normalized to H4R3 to determine relative abundance of H4R3me2s across DMSO and Cpd 17-treated samples.
# [3] = tested on: androgen receptor (AR) gene; test: RT-qPCR expression of AR in LNCaP cells; conditions: 500 nM, 72 hours
# Protocol: (§2) LNCaP cells were seeded to either 6 cm or 10 cm dishes at 800,000 or 2,200,000 cells/dish respectively. Cells were allowed to attach for 24 hours and then subsequently treated with either compound 17 (500 nM) or DMSO for 72 hours. Cells were then harvested with Trizol reagent (Ambion) and RNA integrity was verified via agarose gel electrophoresis. […] was utilized following manufacturer instructions and as described previously, as described in Deng et al., Oncogene 2017, 36 (9), 1223-123; Hsu et al., Mol. Cell. Endocrinol. 2013, 372 (1-2), 12-221; and Zhang et al., Biochim. Biophys. Acta 2014, 1839 (11), 1330-1340, each of which is incorporated herein by reference in its entirety for its teachings regarding same. RT-qPCR was performed with FastStart Universal SYBR Green Master Mix (Thermo Fisher Scientific) and detected on a QuantStudio 6 Flex with QuantStudio Real-Time PCR control software (Thermo Fisher Scientific). QuantStudio Design and Analysis software (Thermo Fisher Scientific) was used for data analysis. Technical triplicates were run for all samples, samples without detectable amplification were deemed undetected. Primer sets were validated via melt curve and agarose gel analysis of RT-qPCR product. AR primers were used as described in Deng et al., Oncogene 2017, 36 (9), 1223-123. […]
# [4] = tested on: Involucrine (IVL) gene; test: RT-qPCR expression of IVL in LNCaP cells; conditions: 500 nM, 72 hours
# Protocol: as §2
# [5] = tested on: PTEN; test: RT-qPCR expression of PTEN in LNCaP cells; conditions: 500 nM, 72 hours
# Protocol: as §2
# [6] = tested on: TP53; test: RT-qPCR expression of TP53 in LNCaP cells; conditions: 500 nM, 72 hours
# Protocol: as §2
# [7] = tested on: LNCaP cells; test: MTT assay / growth of LNCaP cells; conditions: for IC50: 72 hours treatment
# Protocol: LNCaP cells were seeded at 7,000 cells per well of a 96-well cell culture plate and incubated 24 hours to allow for attachment. Test compounds were diluted in RPMI-1640/25% DMSO pre-dilutions and added to respective wells of the assay plate to maintain constant concentration of 0.25% DMSO. After addition of compounds, cells were returned to incubator (37° C., 5% CO2) for 72 hours. Following incubation, assay plates were removed from incubator and media aspirated. 30 μL complete RPMI supplemented with 0.5 mg/mL MTT (Sigma) was added to the plate, and plate returned to incubator for 4 hours. Plates were removed, and 88 μL DMSO was added. Plates were shaken at 700 rpm for 1 minute and read on spectrophotometer at 570 nm.
# [8] = molecular target: T1, PRMT5:MEP50 protein-protein interaction; test: Co-immunoprecipitation western blot in LNCaP cells; conditions: 500 nM, 24 hrs, three biological replicates
# Protocol: LNCaP cells were treated with either DMSO or compound 17 (500 nM, 24 hrs) and harvested for Co-IP and WB in lysis buffer composed of 50 mM Tris-HCl, pH 7.4, 100 mM NaCl, 10 mM EDTA, 0.1% Triton X-100, 1 mM DTT, 1 mM PMSF, and 5 μg each of chymostatin, leupeptin, pepstatin A, and […]. Cells were lysed over 1 hour rotating in 4° C. and supernatant cleared. Total lysate (1 mg/mL) was used for Co-IP with 4 μg rabbit anti-PRMT5 pAb (Millipore Sigma 07-405), rabbit anti-MEP50 pAb (Cell Signaling Technologies S2823S) or normal rabbit IgG (Millipore Sigma N01-100 UG) overnight. Antibody-bound proteins were precipitated with Pierce Protein A agarose beads (Thermo Scientific 20333). Antibodies and immunoprecipitated proteins were prepared for western blot by adding 50 μL 2×SDS buffer, boiling at 95° C. for 5 min, and storing at -80° C. or proceeding to western blot. Co-IP product, input sample, or ladder were loaded into a 10% acrylamide/bisacrylamide gel (20 μL Co-IP, 20 μL input (0.4% total), 5 μL ladder per lane). […] Band Intensity was determined with ImageLab software and ImageJ.
# [9] = tested on: RB1; test: RT-qPCR expression of RB1 in LNCaP cells; conditions: 500 nM, 72 hours
# Protocol: as §2
# [10] = tested on: A549 cells; test: IC50 in A549 NSCLC cell line; conditions: 72 hours treatment
# [11] = tested on: COS-1 cells; test: Cell death seen in COS-1 cells during the BiFC screen; conditions: 10 μM
# Protocol: as §1, with “Referring to FIGS. 6A-6C, for the BiFC screen of compounds 13-22 (including 8a and 8b), COS-1 cells were transfected for 24 hours, treated with 0.5 μM of compounds for 18 hours, and then imaged as described above. Referring to FIG. 6C, for the BiFC screen of compounds 23-26 (including 8a and 8b), COS-1 cells were transfected for 24 hours, treated with 0.25 M of compounds for 18 hours, and then imaged as described above. BiFC drug screens were performed in single biological replicate as a high throughput screen to produce ranked order of compounds, although multiple biological replicate data was used whenever available.” left out
# T1 sequence (O14744 whole entry): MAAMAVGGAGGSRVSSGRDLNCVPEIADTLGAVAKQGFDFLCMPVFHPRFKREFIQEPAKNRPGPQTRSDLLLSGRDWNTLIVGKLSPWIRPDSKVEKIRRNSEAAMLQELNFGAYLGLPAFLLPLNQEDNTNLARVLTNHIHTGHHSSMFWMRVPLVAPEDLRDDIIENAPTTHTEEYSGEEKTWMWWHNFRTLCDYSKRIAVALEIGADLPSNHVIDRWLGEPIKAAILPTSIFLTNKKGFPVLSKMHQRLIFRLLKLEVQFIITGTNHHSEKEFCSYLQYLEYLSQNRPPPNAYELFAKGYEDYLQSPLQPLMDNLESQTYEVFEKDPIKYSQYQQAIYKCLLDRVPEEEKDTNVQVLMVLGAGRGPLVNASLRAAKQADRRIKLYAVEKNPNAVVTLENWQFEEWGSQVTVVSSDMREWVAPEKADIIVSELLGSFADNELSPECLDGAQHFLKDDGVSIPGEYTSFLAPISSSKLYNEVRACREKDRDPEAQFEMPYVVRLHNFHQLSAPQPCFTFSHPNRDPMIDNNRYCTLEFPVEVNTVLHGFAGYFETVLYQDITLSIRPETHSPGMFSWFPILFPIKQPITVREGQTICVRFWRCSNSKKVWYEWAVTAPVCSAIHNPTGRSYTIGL
Compound,rank in BiFC screen (inhibition of PRMT5:MEP50) ([1]; 500 nM),"dose dependence of global H4R3me2s levels ([2]; LNCaP cells, 250, 500 and 1000 nM)",decrease of global H4R3me2s ([2]; LNCaP cells),rank in BiFC screen (inhibition of PRMT5:MEP50) ([1]; 250 nM),expression of PRMT5:pICln-regulated AR gene [3],expression of PRMT5:MEP50-regulated IVL gene [4],expression of PTEN [5],expression of TP53 [6],IC50 [7],"IC50 ([7]; Homo sapiens, LNCaP, 72 h)","suppression of growth and induction of cell death ([7]; LNCaP cells, 250 nM, 500 nM and 1000 nM, 72 hours)",decrease in amount of MEP50 co-immunoprecipitated with PRMT5 bait [8],expression of RB1 [9],IC50 [10],"IC50 ([10]; Homo sapiens, A549, 72 h)","inhibition at 0.25 µM ([1]; 0.25 μM, read-out: inhibition of the BiFC efficiency)",dose-response of BiFC efficiency inhibition ([1]; 0.25-5 μM),cell death on treatment in the BiFC assay [11]
"Cc1noc(C)c1COc1cccc(C(=O)NNC(=O)c2ccc(C(F)(F)F)cn2)c1 [compound 15, N′-(3-((3,5-dimethylisoxazol-4-yl)methoxy)benzoyl)-5-(trifluoromethyl)picolinohydrazide]",top four inhibitors,–,–,–,–,–,–,–,–,–,–,–,–,–,–,–,–,–
"CCc1noc(C)c1COc1cccc(C(=O)NNC(=O)c2ccc3ccccc3n2)c1 [compound 17, N′-(3-((3-ethyl-5-methylisoxazol-4-yl)methoxy)benzoyl)quinoline-2-carbohydrazide]",top four inhibitors,decreased in a dose-dependent manner,65%,most effective,without significantly altering expression,significantly de-represses,upregulation,"to some extent TP53, albeit statistically insignificant",430 nM,< 450 nM,both suppression of growth and induction of cell death in a dose-dependent manner,65.4%,upregulation,447 nM,< 450 nM,–,–,–
"Cc1noc(C)c1COc1cccc(C(=O)NNC(=O)c2ccc3ccccc3n2)c1 [compound 8, N′-(3-((3,5-dimethylisoxazol-4-yl)methoxy)benzoyl)quinoline-2-carbohydrazide]",top four inhibitors,–,–,–,–,–,–,–,–,1660 nM,–,–,–,–,–,41%,dose-dependent manner,significant cell death

# — patent publication US20260049064A1, “PROTEIN:PROTEIN INTERACTION INHIBITORS” (Purdue Research Foundation, priority 2022, published 2026)
